Entries after “also recorded” stand apart in the source; their conditions may differ.
Columns and labels:
nematode progeny = assay: Continuous AICAR treatment: growth and development of nematode progeny; conditions: relative to untreated control progeny
Protocol: Adult wild-type nematodes, daf-2 (e1370), tph-1(mg280), and tub-1(nr2004) mutant nematodes were treated with 500 μM AICAR, and their fat content was detected using Nile Red as described above. […] To determine whether the effects of AICAR were reversible, AICAR-treated nematodes were then moved to culture plates without AICAR. […] The effect of continuous AICAR treatment was tested by seeding AICAR plates with five hermaphrodites, and then monitoring the effect of AICAR on the growth and development of nematode progeny relative to untreated control progeny.

[1] = test system: daf-2(e1370) mutant nematodes; parameters: species or system C. elegans; conditions: in vivo
[2] = test system: tph-1(mg280) mutant nematodes; assay: Nile Red fat staining of tph-1(mg280) nematodes (RNAi epistasis analysis; compound treatment); assay type: in vivo, C. elegans; conditions: adult tph-1(mg280) nematodes, 500 μM
[3] = test system: tub-1(nr2004) mutant nematodes; parameters: species or system C. elegans; conditions: in vivo
wild-type nematodes = assay: Nile Red fat staining of wild-type nematodes (feeding RNAi screen; compound treatment); assay type: in vivo, C. elegans
C. elegans = assay: Growth rate, brood-size, pharyngeal pumping, dauer formation, dauer recovery and lifespan assays; conditions: concentrations between 0.001 μg/ml and 25 μg/ml
lpo-1 mutant nematodes = test system: lpo-1 mutant nematodes; parameters: species or system C. elegans; conditions: in vivo

NC(=O)c1ncn([C@@H]2O[C@H](CO)[C@@H](O)[C@H]2O)c1N [AICAR, 5-aminoimidazole-4-carbozamide ribonucleoside]
effect on growth and development of progeny (nematode progeny): dramatic retardation of larval growth accompanied by depleted fat stores | fat content relative to untreated control nematodes [1]: progressive reduction in fat content | fat content relative to untreated control nematodes [2]: progressive reduction in fat content | fat content relative to untreated control nematodes [3]: progressive reduction in fat content | time at which reduction in fat content was detectable (wild-type nematodes; 500 μM, wild-type and daf-2, tph-1, tub-1 mutant nematodes): twenty-four | fat content relative to untreated control nematodes (wild-type nematodes; adult wild-type nematodes, 500 μM): progressive reduction in fat content | reversibility of fat reduction (wild-type nematodes; treated nematodes moved to culture plates without AICAR): regained their fat content

CCN(CC)c1ccc2nc3c4ccccc4c(=O)cc-3oc2c1 [Nile Red, 9-diethylamino-5H-benzo[α]phenoxazine-5-one]
adverse effects on growth rate, brood-size, pharyngeal pumping, dauer formation, dauer recovery, or lifespan (C. elegans): No adverse effects

CC[C@H](C)C(=O)O[C@H]1C[C@@H](C)C=C2C=C[C@H](C)[C@H](CC[C@@H]3C[C@@H](O)CC(=O)O3)[C@H]21 [mevinolin]
fat content / fat accumulation by Nile Red staining (lpo-1 mutant nematodes): reduced; also recorded: decreased fat accumulation

— patent US20070087378A1, “Polynucleotide and polypeptide fat metabolism regulators and uses thereof” (priority 2002, published 2007)
